Columns and labels:
[1] = test system: ovariectomized (OVX) rats; assay: Bone mineral density in the ovariectomized (OVX) rats (2); type: in vivo, Sprague-Dawley rats; conditions: orally seven times a week for 4 weeks; for Spinal BMD: L2-L5
Method: Bone Mineral Density in the Ovariectomized (OVX) Rats (2)
Alfacalcidol was synthesized in Chugai Pharmaceutical Co., Ltd., Japan, dissolved in a vehicle (medium chain triglyceride, MCT) and diluted to a given concentration. The stock solutions were protected from light and stored at 4° C.
(§1) Eight-month-old female Sprague-Dawley (Crl:CD(SD)) rats were purchased from Charles River Japan Inc. (Kanagawa, Japan) and acclimated under standard laboratory conditions at 23±2° C. and 40-70% humidity. The rats were allowed free access to tap water and commercial standard rodent chow CRF-1 (Oriental Yeast Co. Ltd., Japan).
(§2) Sham-operated (n=8) and the ovariectomized (OVX) rats were used. The OVX rats were divided into each group (n=8) one day after the surgery. In the sham and OVX control groups, rats received the vehicle (MCT) p.o. at a dose of 1 ml/kg body weight (BW) every day. Each compound was given orally seven times a week for 4 weeks.
(§3) During the 24 hours from the last administration, urine was collected with metabolic cage, and blood was drawn from the jugular vein under ether anesthesia. Blood and urine samples were centrifuged to obtain the supernatant, which were stored at −20° C. until assay. The lumbar vertebrae and femora were removed. The lumbar vertebra and the right femur were stored i 70% ethanol at 4° C. for the measurement of bone mineral density (BMD).
(§4) Serum and Urine Biochemistry
(§5) Serum calcium (Ca) and inorganic phosphorus (Pi) concentrations were measured with an autoanalyzer (Hitachi 7170, Tokyo, Japan). The serum osteocalcin concentration was measured with Osteocalcin rat ELISA system (Smersham Pharmacia Biotech, Tokyo, Japan). Urinary Ca, Pi, and creatinine (Cre) were measured with an autoanalyzer. Urinary deoxypyridinoline (D-Pyr) was measured using a Metra DPD EIA kit (Quidel Co., USA), and the data were corrected for urinary Cre concentrations.
(§6) Measurement of Bone Mineral Density
The second through fifth lumbar vertebaral (L2-L5) BMD (mg/cm^2) and femoral BMD were measured by dual-energy X-ray absorptiometry (DCS-600-EX, Aloka, Japan).

[2] = test system: ovariectomized (OVX) rats; assay: Bone mineral density in the ovariectomized (OVX) rats (1); type: in vivo, Sprague-Dawley rats; conditions: orally five times a week for 4 weeks; for Spinal BMD: L2-L4
Method: Bone Mineral Density in the Ovariectomized (OVX) Rats (1)
The compounds of the present invention were prepared as exemplified above, dissolved in a vehicle (medium chain triglyceride, MCT) and diluted to a given concentration. The stock solutions were protected from light and stored at 4° C.
as §1, with “24±2°” for “23±2°”, “50-60%” for “40-70%”, “CE-2 (Clea Japan Inc.,” for “CRF-1 (Oriental Yeast Co. Ltd.,”
as §2, with “five times a week.” for “every day.”, “five” for “seven”, “weeks. These animal studies were carried out in accordance with Chugai Pharmaceutical's ethical guidelines for animal care, and the experimental protocols were approved by the animal care committee of the institution.” for “weeks.”
as §3, with “the abdominal aorta” for “the jugular vein”, “and femur” for “and femora”, “stored in” for “stored i”
as §4
as §5, with “(Amersham” for “(Smersham”
as §6
The second through fourth lumbar vertebaral (L2-L4) BMD (mg/cm^2) and femoral BMD were measured by dual-energy X-ray absorptiometry (DCS-600-EX, Aloka, Japan).

[3] = test system: ECAC2 mRNA in Caco-2 cells; type: cell-based
Outline: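 Caco-2 cells grown 4 days, then exposed 1 day at 37° C to compounds in medium with 10% FBS, refreshed twice daily. ECAC2 mRNA by one-step TaqMan RT-PCR, normalized to GAPDH. EC50 from Emax model, expressed as ratio to LG190178 EC50.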

| serum Ca ([1]; 0.125 microgram/kg/week) | serum Ca ([1]; 0.25 microgram/kg/week) | serum Ca ([1]; 0.5 microgram/kg/week) | serum Ca ([2]; 0.75 microgram/kg/week) | ECaC-2 mRNA induction activity in Caco-2 cells [3] | serum Ca ([2]; 7.5 microgram/kg/week) | Compound | Spinal BMD ([1]; 0.125 microgram/kg/week) | Spinal BMD ([1]; 0.25 microgram/kg/week) | Spinal BMD ([1]; 0.5 microgram/kg/week) | Spinal BMD ([2]; 0.75 microgram/kg/week) | Spinal BMD ([2]; 7.5 microgram/kg/week) |
| --- | --- | --- | --- | --- | --- | --- | --- | --- | --- | --- | --- |
| 10.2 mg/dL | 10.6 mg/dL | 10.7 mg/dL |  |  |  | C=C1/C(=C\C=C2/CCC[C@]3(C)[C@@H]([C@H](C)CCCC(C)C)CC[C@@H]23)C[C@@H](O)C[C@@H]1O [Alfacalcidol] | 182.1 mg/cm2 | 180.9 mg/cm2 | 185.1 mg/cm2 |  |  |
|  |  |  | 10.0 mg/dL | 53% |  | CCC(CC)(c1ccc(CCC(O)C(C)(C)C)c(C)c1)c1ccc(OC[C@H](O)CCC(=O)[O-])c(C)c1.[Na+] (stereo partly drawn) [Example 140, 5-(4-{1-Ethyl-1-[4-(3-hydroxy-4,4-dimethyl-pentyl)-3-methyl-phenyl]-propyl}-2-methyl-phenoxy)-4(R)-hydroxy-pentanoic acid sodium salt] |  |  |  | 186.6 mg/cm2 |  |
|  |  |  |  | 31% | 10.1 mg/dL | CCC(CC)(c1ccc(CCC(O)C(C)(C)C)c(C)c1)c1ccc(OC[C@H](O)CCC(=O)[O-])c(C)c1.[Na+] (stereo partly drawn) [Example 141, 5-(4-{1-Ethyl-1-[4-(3-hydroxy4,4-dimethyl-pentyl)-3-methyl-phenyl]-propyl}-2-methyl-phenoxy)4(R)-hydroxy-pentanoic acid sodium salt] |  |  |  |  | 184.4 mg/cm2 |
